The nature of assay [1]: Inhibition of Mycobacterium tuberculosis H37Rv cytochrome bd oxidase with ATP synthase overexpression inverted membrane vesicles. Format: cell membranes, Membrane vesicle.
Assay [2] has as its system Mycobacterium tuberculosis. Put plainly: Antimycobacterial activity against clinical isolate multi drug resistant Mycobacterium tuberculosis H37Rv assessed as inhibition of bacterial growth. Format: functional, organism-based.
For assay [3], the system named is Mycobacterium tuberculosis. The experiment in a line: Antimycobacterial activity against Mycobacterium tuberculosis Rv1305 harbouring atpE gene. Format: functional.

In brackets after ≈: the same amount, converted by molar mass.

`c1ccc(CCNc2ncnc3ccccc23)cc1` returned an IC50 in assay [1] of 27 µM.

Consider `CC(C)(C)c1ccc(CCNc2ncnc3ccsc23)cc1`, for which the IC50 in assay [2] was found to be 18.9 µM.

In turn, `NC(=O)NC(=O)c1nc(-c2cc3ccccc3o2)c(N)nc1N` yielded a minimal inhibitory concentration (MIC) in assay [3] of 5 µM (≈ 1.56 µg/mL).

As for `CCc1nc2ccc(Cl)cn2c1C(=O)NCc1ccc(N2CCC(c3ccc(OC(F)(F)F)cc3)CC2)cc1` [TELACEBEC], the minimum inhibitory concentration (MIC) in assay [2] was not above 1 µM.

The term IC50 denotes the point on the concentration scale where inhibition reaches its midpoint. Usually MIC stands for the lowest concentration that inhibits growth of the organism.

For the origin of these results see ChEMBL document CHEMBL5344478, “Cytochrome bd oxidase: an emerging anti-tubercular drug target” (RSC Med Chem, 2024).
